Measurements published in PMC10631261 (Chemical Science, 2023).
Where two headings read alike, the source gives them in different places. Each block holds one compound with its values, some of them ahead of it.

Legend:
[1] = biological target: PHD2 (Homo sapiens, UniProt Q9GZT9); assay: biochemical
Procedure: (§1) 3. Biochemical procedures
(§2) Protein production and purification
(§3) PAGE analysis) according to established procedures.
(§4) FIH, PHD2, AspH, JMJD5 and KDM4A inhibition assays
(§5) The in vitro FIH,1, 2 PHD2,1 AspH,38 JMJD536 and KDM4A39 inhibition assays were performed as […]
(§6) KDM4A). Synthetic peptide substrates were used: HIF-1α C-terminal transactivation domain fragment […]
(§7) H3Lys9 bearing three methyl groups at the N ϵ position, H3Lys4 substituted by an Ala and H3Lys14 substituted by an Ile residue) for KDM4A.39 Peptides were prepared as C-terminal amides by GL Biochem (Shanghai) Ltd. Peptide hydroxylation in the case of FIH, PHD2, AspH and JMJD5 (+16 Da mass shift) or peptide demethylation in the case of KDM4A ( -14 Da mass shift) was monitored by SPE-MS. […]

[2] = biological target: KDM4A (Homo sapiens, UniProt O75164); assay: biochemical; type: biochemical
Source text: (§8) To investigate the potential of BNS for selective FIH inhibition, its selectivity was investigated with respect to other 2OG-dependent protein oxidising enzymes, that is PHD2, Jumonji-C domain-containing protein 5 (JMJD5), aspartate/asparagine-β-hydroxylase (AspH) and KDM4A, using reported SPE-MS inhibition assays.[58,61,69,70] In addition to PHD2 and KDM4A, we included AspH and JMJD5 in our selectivity studies, because AspH, like FIH, catalyses protein aspartate- and asparagine-residue hydroxylation (although in epidermal growth factor-like domains),[71,72] and because JMJD5 is structurally closely related to FIH.[73,74]
as §1, §2, §3, §4, §5, §6, §7

[3] = biological target: T1, AspH (Homo sapiens, UniProt Q12797); conditions: cited from earlier work
[4] = biological target: T2, JMJD5 (Homo sapiens, UniProt Q8N371); design: method as in PMID 37292060; conditions: cited from earlier work
[5] = biological target: T3, FIH (Homo sapiens, UniProt Q9NWT6); assay: SPE-MS FIH inhibition assay; type: biochemical
T3 construct: made in house
Procedure: as §2, §3, §4, §5, §6, §7

[6] = biological target: T1, AspH; assay: biochemical
Source text: as §8, §1, §2, §3, §4, §5, §6, §7

[7] = biological target: T2, JMJD5; assay: biochemical; conditions: read-out: JMJD5 IC50
Source text: as §8, §1, §2, §3, §4, §5, §6, §7

[8] = tested on: EGLN3; assay: qRT-PCR of EGLN3 expression in Hep3B cells; type: cell-based, human
Procedure: (§9) 4. Methods for cell studies […]
(§10) in Minimum Essential Medium (MEM, GIBCO) with 10% fetal bovine serum (FBS, BI), 100 U/mL penicillin and 100 μg/mL streptomycin (1 × P/S, NCM Biotech). […]
(§11) and 100 μg/mL streptomycin (1 × P/S, NCM Biotech).
(§12) Quantitative PCR Analysis of Gene Expression […]
(§13) treated with vehicle (DMSO) or an inhibitor (at the concentrations indicated) for 12 h. Total RNA was isolated from cells and tissues using Trizol regents (Vazyme, China). 1 μg RNA was used for reverse transcription using HiScript III RT SuperMix for qPCR (Vazyme, China). cDNAs were amplified in a ChamQ Universal SYBR qPCR Master Mix (Vazyme, China). Quantitative PCR (qPCR) was performed on […]
(§14) a ABI QuantStudio 3 system.
(§15) The relative amount of mRNA was calculated after
(§16) 3T3-L1 derived adipocytes. […]

[9] = tested on: EGLN3; assay: qRT-PCR of EGLN3 expression in 786-O cells; type: cell-based; conditions: VHL-deficient 786-O cells
Procedure: as §9, §10, §11, §12, §13, §14, §15, §16

[10] = tested on: SLC2A1; assay: qRT-PCR of SLC2A1 expression in Hep3B cells; type: cell-based, human
Procedure: as §9, §10, §11, §12, §13, §14, §15, §16

[11] = tested on: CA9; assay: qRT-PCR of CA9 expression in Hep3B cells; type: cell-based, human
Procedure: as §9, §10, §11, §12, §13, §14, §15, §16

[12] = tested on: EPO; assay: qRT-PCR of EPO expression in Hep3B cells; type: cell-based, human
Procedure: as §9, §10, §11, §12, §13, §14, §15, §16

[13] = tested on: 3T3-L1 derived adipocytes; assay: Cellular triglyceride (TG) colorimetric assay; type: cell-based; conditions: 50 μM
Procedure: as §9, §10
(§17) and 100 μg/mL streptomycin (1 × P/S, NCM Biotech). […]
(§18) 3T3-L1 derived adipocytes.
(§19) 10% newborn calf serum (NCS, GIBCO), 100 U/mL penicillin and 100 μg/mL streptomycin (1 × P/S, NCM […]
(§20) The 3T3-L1 cells were strictly subcultured before they
Subcultures of 3T3 -L1 cells were routinely cultured in DMEM medium containing 10% NCS for two days, and then the cells were cultured in DMEM containing 10% FBS, 0.5 mM 3 -isobutyl-1-methylxanthine, 1 μM dexamethasone, 10 μg/mL insulin and 2 μM rosiglitazone for another two days. Subsequently, the cells were cultured in DMEM containing 10% FBS and 10 μg/mL insulin for two days. After these procedures, the cells were maintained in […]
To investigate the effect of inhibitors on adipocytes, 3T3-L1-derived adipocytes were treated with vehicle (DMSO) or with an inhibitor (at the concentrations indicated) for 48 h. […]
Cellular TG level assay for 3T3 -L1 derived adipocytes.
The 3T3-L1-derived adipocytes were washed with PBS, then the cells were lysed. And then, the cellular TG level was determined by using a cellular triglyceride assay kit (Applygen, China).
Oil Red O staining for 3T3-L1 derived adipocytes.

[14] = tested on: 3T3-L1 derived adipocytes; type: cell-based
Procedure: as §9, §10, §17, §18, §19, §20
Subcultures of 3T3 -L1 cells were routinely cultured in DMEM medium containing 10% NCS for two days, and then the cells were cultured in DMEM containing 10% FBS, 0.5 mM 3 -isobutyl-1-methylxanthine, 1 μM dexamethasone, 10 μg/mL insulin and 2 μM rosiglitazone for another two days. Subsequently, the cells were cultured in DMEM containing 10% FBS and 10 μg/mL insulin for two days. After these procedures, the cells were maintained in DMEM containing 10% FBS. T he last induction procedure was repeated 2 -3 times until lipid droplets […]
Viability Assay for 3T3-L1 derived adipocytes.
To investigate the effect of inhibitors on adipocytes, 3T3-L1-derived adipocytes were treated with vehicle (DMSO) or with an inhibitor (at the concentrations indicated) for 48 h. Cell viability was […]
Microplate Reader (Tecan) at OD 450 nm. […]

T3 sequence (Q9NWT6 whole entry): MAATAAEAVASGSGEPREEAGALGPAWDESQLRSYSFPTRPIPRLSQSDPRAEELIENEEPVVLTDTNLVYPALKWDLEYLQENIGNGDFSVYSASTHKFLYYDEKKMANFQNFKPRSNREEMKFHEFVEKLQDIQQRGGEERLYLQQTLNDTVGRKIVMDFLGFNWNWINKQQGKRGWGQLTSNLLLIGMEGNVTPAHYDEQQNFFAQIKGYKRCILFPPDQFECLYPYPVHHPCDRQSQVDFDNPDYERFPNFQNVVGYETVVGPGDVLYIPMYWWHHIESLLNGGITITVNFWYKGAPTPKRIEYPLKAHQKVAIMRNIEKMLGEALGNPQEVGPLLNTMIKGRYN
Sequence of KDM4A (O75164 1-359): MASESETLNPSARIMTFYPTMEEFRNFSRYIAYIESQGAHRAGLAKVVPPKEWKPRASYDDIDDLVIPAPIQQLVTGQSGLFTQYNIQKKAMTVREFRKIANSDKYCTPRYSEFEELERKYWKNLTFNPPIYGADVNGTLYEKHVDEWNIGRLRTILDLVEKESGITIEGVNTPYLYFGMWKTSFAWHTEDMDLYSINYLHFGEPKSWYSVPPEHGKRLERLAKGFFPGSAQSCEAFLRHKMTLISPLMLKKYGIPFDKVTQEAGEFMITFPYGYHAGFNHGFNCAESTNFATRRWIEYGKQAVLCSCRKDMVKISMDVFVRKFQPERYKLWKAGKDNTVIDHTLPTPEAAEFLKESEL
T2 sequence (Q8N371 whole entry): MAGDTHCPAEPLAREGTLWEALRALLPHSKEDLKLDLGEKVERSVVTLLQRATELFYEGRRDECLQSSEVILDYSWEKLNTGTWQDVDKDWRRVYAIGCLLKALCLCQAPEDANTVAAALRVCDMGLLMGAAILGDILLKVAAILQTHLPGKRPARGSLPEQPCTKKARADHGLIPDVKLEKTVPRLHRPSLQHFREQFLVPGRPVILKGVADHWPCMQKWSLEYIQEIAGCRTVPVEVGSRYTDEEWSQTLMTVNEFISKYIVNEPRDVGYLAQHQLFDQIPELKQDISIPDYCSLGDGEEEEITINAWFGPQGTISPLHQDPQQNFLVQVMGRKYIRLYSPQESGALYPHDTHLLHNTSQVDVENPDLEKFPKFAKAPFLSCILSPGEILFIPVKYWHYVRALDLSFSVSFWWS
Sequence of PHD2 (Q9GZT9 181-426): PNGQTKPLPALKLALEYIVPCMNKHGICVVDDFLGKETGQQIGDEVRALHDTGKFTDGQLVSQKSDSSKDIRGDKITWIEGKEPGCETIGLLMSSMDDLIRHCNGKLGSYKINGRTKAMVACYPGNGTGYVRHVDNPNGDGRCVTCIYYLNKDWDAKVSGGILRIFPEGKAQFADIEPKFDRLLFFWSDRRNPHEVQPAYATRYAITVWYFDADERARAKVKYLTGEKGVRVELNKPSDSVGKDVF
T1 sequence (Q12797 315-758): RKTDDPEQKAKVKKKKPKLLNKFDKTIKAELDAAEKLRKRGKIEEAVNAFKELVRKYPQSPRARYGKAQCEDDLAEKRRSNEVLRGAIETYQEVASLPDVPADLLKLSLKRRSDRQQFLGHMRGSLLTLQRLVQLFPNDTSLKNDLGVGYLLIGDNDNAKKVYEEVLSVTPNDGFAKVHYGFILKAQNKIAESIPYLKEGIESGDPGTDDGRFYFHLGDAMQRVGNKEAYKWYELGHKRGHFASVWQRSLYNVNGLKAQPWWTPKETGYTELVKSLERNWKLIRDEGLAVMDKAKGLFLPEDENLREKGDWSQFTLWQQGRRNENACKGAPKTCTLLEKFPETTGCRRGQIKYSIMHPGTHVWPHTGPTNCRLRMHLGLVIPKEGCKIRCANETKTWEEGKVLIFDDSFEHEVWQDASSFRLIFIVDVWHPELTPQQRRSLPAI

IC50 [1]: > 100 µM
IC50 [2]: 14.1 µM
Structure (SMILES): O=C(O)C(=O)N[C@H](Cc1ccccc1)C(=O)O [NOFD, N-oxalyl-D-phenylalanine, reference compound]
IC50 [3]: 15.5 µM
IC50 [4]: > 100 µM

Structure (SMILES): O=C(O)Cc1csc(=NC(=O)C2CCN(S(=O)(=O)Cc3ccccc3)C2)n1O (stereo not shown) [compound 42]
IC50 [5]: 0.28 ± 0.02 µM
FIH inhibition potency relative to 2,4-PDCA (more potent) ([5]; IC50 comparison with 2,4-PDCA): ~10 fold
selectivity for FIH inhibition over AspH inhibition ([5]; as judged by IC50 values): > 100 fold
selectivity for FIH inhibition over JMJD5 inhibition ([5]; as judged by IC50 values): ~25 fold
selectivity for FIH inhibition over KDM4A inhibition ([5]; as judged by IC50 values): > 300 fold
selectivity for FIH inhibition over PHD2 inhibition ([5]; as judged by IC50 values): ~25 fold
IC50 [1]: 6.9 ± 0.5 µM
IC50 [6]: 43.1 ± 18.7 µM
IC50 [7]: 7.2 ± 2.8 µM
IC50 [2]: > 100 µM
increase of EGLN3 expression relative to DMSO ([8]; 50 μM, 12 h, qRT-PCR): ~2.5 fold
EGLN3 upregulation on co-administration with FG-4592 relative to compound alone ([8]; with FG-4592): greater increase
effect on EGLN3 gene expression [9]: upregulation of EGLN3
increase of SLC2A1 levels ([10]; qPCR, relative to DMSO): ~1.5 fold
SLC2A1 gene expression in combination with FG-4592 ([10]; with FG-4592): no synergistic effect
upregulation of CA9 ([11]; qPCR, relative to DMSO): no response
CA9 levels in combination with FG-4592 compared with FG-4592 alone ([11]; with FG-4592): increase
upregulation of EPO ([12]; qPCR, relative to DMSO): no response
EPO levels in combination with FG-4592 compared with FG-4592 alone ([12]; with FG-4592, to a lesser extent than CA9): increase
reduction in cellular TG levels [13]: ~30%
cytotoxicity (cell viability) [14]: Neither 42 and 42b exhibited apparent cytotoxicity
